Values belong to the compound of their own block, whether it stands above or below them.
Assay: Effect of concentration on the stability of the solution (purity over time)
Conditions: for Stability when the concentration is 0.1% or lower: in water at 25° C.; for Purity (%) at Day 3 / Purity (%) at Day 7 / Purity (%) at hr 0 / Purity (%) at hr 24 / Purity(%) at Day 14 / Purity(%) at Day 28: 25° C.

Structure (SMILES): CCN(CC)CCOC(=O)CCCc1ccc(N(CCCl)CCCl)cc1.Cl [2-(diethylamino)ethyl 4-[bis(2-chloroethyl)amino]benzenebutyrate.HCl]
Stability when the concentration is 0.1% or lower: not stable

Stability when the concentration is 0.1% or lower: not stable
Structure (SMILES): CCN(CC)CCOC(=O)CCCc1ccc(N(CCS(C)(=O)=O)CCS(C)(=O)=O)cc1.Cl [2-(diethylamino)ethyl 4-[bis(2-methylsulfonylethyl)amino]benzenebutyrate.HCl]

Structure (SMILES): CCOC(=O)c1ccccc1 [Ethyl benzoate, reference compound]
Stability of common ester over the concentrations tested (0.01% to 10% (or higher) in 50% ethanol at 25° C.): very stable | Purity (%) at Day 3 (0.01 wt % in 50% ethanol): 97.4% | Purity (%) at Day 7 (0.01 wt % in 50% ethanol): 96.9% | Purity (%) at hr 0 (0.01 wt % in 50% ethanol): 97.8% | Purity (%) at hr 24 (0.01 wt % in 50% ethanol): 97.6% | Purity(%) at Day 14 (0.01 wt % in 50% ethanol): 96.1% | Purity(%) at Day 28 (0.01 wt % in 50% ethanol): 95.3% | Purity (%) at Day 3 (0.1 wt % in 50% ethanol): 97.6% | Purity (%) at Day 7 (0.1 wt % in 50% ethanol): 97.5% | Purity (%) at hr 0 (0.1 wt % in 50% ethanol): 97.9% | Purity (%) at hr 24 (0.1 wt % in 50% ethanol): 97.7% | Purity(%) at Day 14 (0.1 wt % in 50% ethanol): 97.2% | Purity(%) at Day 28 (0.1 wt % in 50% ethanol): 95.9% | Purity (%) at Day 3 (1 wt % in 50% ethanol): 97.7% | Purity (%) at Day 7 (1 wt % in 50% ethanol): 97.6% | Purity (%) at hr 0 (1 wt % in 50% ethanol): 98.0% | Purity (%) at hr 24 (1 wt % in 50% ethanol): 97.8% | Purity(%) at Day 14 (1 wt % in 50% ethanol): 97.5% | Purity(%) at Day 28 (1 wt % in 50% ethanol): 97.3% | Purity (%) at Day 3 (3 wt % in 50% ethanol): 97.8% | Purity (%) at Day 7 (3 wt % in 50% ethanol): 97.7% | Purity (%) at hr 0 (3 wt % in 50% ethanol): 97.9% | Purity (%) at hr 24 (3 wt % in 50% ethanol): 97.8% | Purity(%) at Day 14 (3 wt % in 50% ethanol): 97.6% | Purity(%) at Day 28 (3 wt % in 50% ethanol): 97.5% | Purity (%) at Day 3 (5 wt % in 50% ethanol): 97.8% | Purity (%) at Day 7 (5 wt % in 50% ethanol): 97.7% | Purity (%) at hr 0 (5 wt % in 50% ethanol): 98.0% | Purity (%) at hr 24 (5 wt % in 50% ethanol): 97.8% | Purity(%) at Day 14 (5 wt % in 50% ethanol): 97.6% | Purity(%) at Day 28 (5 wt % in 50% ethanol): 97.6% | Purity (%) at Day 3 (10 wt % in 50% ethanol): 97.8% | Purity (%) at Day 7 (10 wt % in 50% ethanol): 97.8% | Purity (%) at hr 0 (10 wt % in 50% ethanol): 97.9% | Purity (%) at hr 24 (10 wt % in 50% ethanol): 97.8% | Purity(%) at Day 14 (10 wt % in 50% ethanol): 97.7% | Purity(%) at Day 28 (10 wt % in 50% ethanol): 97.6%

Reference: patent US20230157952A1, “METHOD FOR IMPROVING THE STABILITY OF A PHARMACEUTICAL COMPOSITION COMPRISING A HIGH PENETRATION DRUG, AND THE PHARMACEUTICAL COMPOSITION OBTAINED THEREFROM” (Techfields Inc., priority 2020, published 2023)
